Data set [1] has as its system classical complement pathway. The data set can be described thus: In vitro haemolysis assay (inhibition of classical complement pathway). As to conditions: Table 3; human serum, sensitized sheep red blood cells; read-out: IC50[nM], in vitro analysis of inhibition of hemolysis. In kind it is cell-based, human. A digest of the protocol: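 Serially diluted compound (9 points) was preincubated 15 min at room temperature with diluted human serum, titrated per batch to give 70-90% maximal haemolysis, in Tris/casein buffer pH 7.4 with Mg2+/Ca2+. Antibody-sensitized sheep erythrocytes were then added for 30 min at 37° C, and the reaction was stopped with EDTA. Haemolysis was read at A405, with IC50 from 4PL fit.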

Data set [2] in a line: Solubility test at 10 mg/mL (visual inspection and light scattering). The format is physicochemical. As to conditions: for Solubility, Condition 1 Acetate pH 4: 10 mg/mL compound in 100 mM acetate pH 4; for Solubility, Condition 2 Acetate pH 5: 10 mg/mL compound in 100 mM acetate pH 5; for Solubility, Condition 3 Phosphate pH 6: 10 mg/mL compound in 100 mM phosphate pH 6; for Solubility, Condition 4 Phosphate pH 7: 10 mg/mL compound in 100 mM phosphate pH 7; for Solubility, Condition 5 Phosphate pH 7.5: 10 mg/mL compound in 100 mM phosphate pH 7.5.

Data set [3] in a line: in vivo. Also on record: species or system Cynomolgus monkeys (Macaca fascicularis). The conditions noted are these: male, cynomolgus monkey, sc, 1840 nmol/kg, t½. A digest of the protocol: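 Healthy male cynomolgus monkeys dosed once subcutaneously at 1840 nmol/kg in 20 mM phosphate pH 7.5 with mannitol. Serum sampled pre-dose to 120 h and total drug measured by SPE and LC-MS/MS. Terminal half-life calculated non-compartmentally as ln(2)/λz from the terminal log-linear phase.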

For data set [4], the system named is alternative complement pathway. The data set can be described thus: Ex vivo alternative pathway complement activity (WIESLAB kit) in serum of dosed non-human primates. Set-up: species or system Cynomolgus monkeys (Macaca fascicularis). As to conditions: NHP, subcutaneous 1840 nmol/kg, FIG. 1. As to the method:
FIG. 1(a-g): Normalized “ex vivo” activity of the alternative complement pathway over time after administration of a test compound at time 0 to non-human primates. Compounds were given subcutaneously at a dose of 1840 nmol/kg. Complement activity (alternative pathway) was measured using the Wieslab kit. Activity was normalized using the predose (0) sample (set to 100%) and the negative control included in the kit. Normalized activity or average normalized activity for animals and standard deviation is shown.
Healthy male Cynomolgus monkeys (Macaca fascicularis) received single subcutaneous administrations of each test substance. Compounds were formulated in 20 mM phosphate adjusted with NaOH to pH 7.5 and mannitol for isotonicity and dosed at 1840 nmol/kg. Blood was collected from a femoral vein from each animal at the following times: Pre-dose, 1, 2, 4, 8, 24, 48, 72, 96 and 120 h (10 sampling times). Blood was collected into serum separation tubes and allowed to clot at room temperature. The tubes were centrifuged and resulting serum was aliquoted and snap-frozen over dry-ice and stored at nominally −80° C. until analysis. All NHP studies were performed in accordance with animal welfare laws and regulations, including approval of the study by a local ethical review process.
Serum isolated from non-human primates at specific time points after dosing were analyzed for alternative pathway complement activity using the Complement system Alternative Pathway WIESLAB® kit from Svar Life Science (previously Euro diagnostic AB, Sweden) following the manufacturer's protocol. Briefly, serum samples or controls were diluted in buffer and incubated in microtitre strips coated with specific activators of the alternative pathway. The wells were washed and formed C5b-9 was detected using included colorimetric reagents.
Absorbance at 405 nm was measured. The percent activity of the alternative complement pathway was calculated for each animal and timepoint relative to the pre-dose activity (0 hours) of the individual animal with subtraction of the negative control. […]

The target of data set [5] is T1, Human C3 (human, UniProt P01024 23-1663). The data set can be described thus: cell-based or functional assay.
T1 sequence (P01024 23-1663 limits assumed): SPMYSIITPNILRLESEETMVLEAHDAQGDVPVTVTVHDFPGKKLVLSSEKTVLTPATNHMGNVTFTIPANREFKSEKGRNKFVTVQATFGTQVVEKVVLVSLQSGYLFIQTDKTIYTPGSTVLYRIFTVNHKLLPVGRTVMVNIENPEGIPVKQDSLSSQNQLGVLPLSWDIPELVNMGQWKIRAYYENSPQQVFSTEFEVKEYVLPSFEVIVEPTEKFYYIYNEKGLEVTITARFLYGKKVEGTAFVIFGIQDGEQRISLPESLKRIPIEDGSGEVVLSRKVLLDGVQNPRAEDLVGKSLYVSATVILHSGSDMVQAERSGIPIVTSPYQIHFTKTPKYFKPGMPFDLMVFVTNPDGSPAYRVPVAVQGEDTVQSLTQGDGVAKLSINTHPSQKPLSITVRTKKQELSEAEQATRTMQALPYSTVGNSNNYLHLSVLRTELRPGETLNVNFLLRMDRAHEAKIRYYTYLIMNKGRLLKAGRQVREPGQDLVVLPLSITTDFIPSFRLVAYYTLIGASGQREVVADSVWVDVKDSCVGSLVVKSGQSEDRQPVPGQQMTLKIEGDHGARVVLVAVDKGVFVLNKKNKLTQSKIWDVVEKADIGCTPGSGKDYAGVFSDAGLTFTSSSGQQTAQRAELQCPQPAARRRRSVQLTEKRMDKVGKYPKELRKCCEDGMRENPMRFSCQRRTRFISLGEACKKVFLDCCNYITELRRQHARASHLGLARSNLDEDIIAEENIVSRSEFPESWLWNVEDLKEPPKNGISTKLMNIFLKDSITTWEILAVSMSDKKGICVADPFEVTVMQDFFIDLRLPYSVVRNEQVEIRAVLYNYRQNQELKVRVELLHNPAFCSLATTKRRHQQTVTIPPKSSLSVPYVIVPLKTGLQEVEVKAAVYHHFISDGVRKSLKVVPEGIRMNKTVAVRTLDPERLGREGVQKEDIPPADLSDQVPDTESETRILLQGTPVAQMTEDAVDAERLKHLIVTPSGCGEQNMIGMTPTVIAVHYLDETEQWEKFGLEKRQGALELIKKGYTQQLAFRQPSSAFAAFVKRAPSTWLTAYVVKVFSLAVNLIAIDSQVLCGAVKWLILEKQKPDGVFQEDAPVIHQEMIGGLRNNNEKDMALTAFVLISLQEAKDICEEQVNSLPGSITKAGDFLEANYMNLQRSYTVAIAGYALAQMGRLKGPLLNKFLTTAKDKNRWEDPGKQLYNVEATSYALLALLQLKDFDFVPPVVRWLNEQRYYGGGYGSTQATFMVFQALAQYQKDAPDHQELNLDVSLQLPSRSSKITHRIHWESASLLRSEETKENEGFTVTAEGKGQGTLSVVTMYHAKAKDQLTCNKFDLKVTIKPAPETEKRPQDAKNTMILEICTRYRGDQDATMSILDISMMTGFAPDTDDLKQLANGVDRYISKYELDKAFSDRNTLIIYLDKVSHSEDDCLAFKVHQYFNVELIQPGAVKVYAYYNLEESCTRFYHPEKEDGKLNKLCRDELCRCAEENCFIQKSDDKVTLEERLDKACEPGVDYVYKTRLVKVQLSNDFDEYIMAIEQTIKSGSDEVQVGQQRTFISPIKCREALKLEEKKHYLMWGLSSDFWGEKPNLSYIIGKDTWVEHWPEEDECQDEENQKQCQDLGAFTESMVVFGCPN
For data set [6], the target named is T1, Human C3. Nature of the data set: cell-based or functional assay. This is another data set of the same source.

Positions of bridges follow the written chain, without caps; N, C: chain ends. Non-standard residues stand in square brackets, D forms with d. Residues, ends and D or L forms follow the SMILES beside them. Trp(1-Me) = Cn1cc(C[C@H](N)C(=O)O)c2ccccc21; Sar = CNCC(=O)O

This is an account of results in patent US20220306695A1, “COMPSTATIN ANALOGUES AND THEIR MEDICAL USES” (priority 2019, published 2022).

As a reminder, the IC50 is the concentration that inhibits the measured activity by half. As a reminder, the half-life is the time needed for the level to fall by half in the phase considered. A high value points to slow decline. Take `CC[C@H](C)[C@@H]1NC(=O)[C@@H](NC(=O)[C@H](Cc2ccc(O)cc2)NC(=O)[C@H](C)NC(=O)[C@H](CO)NC(=O)CNC(=O)[C@H](CCC(=O)O)NC(C)=O)CSSC[C@@H](C(=O)N(C)CC(=O)N[C@@H](CCC(=O)O)C(N)=O)NC(=O)[C@H](CCCNC(=N)N)NC(=O)[C@H](Cc2c[nH]cn2)NC(=O)[C@H](CCC(=O)O)NC(=O)CNC(=O)[C@H](Cc2c[nH]c3ccccc23)NC(=O)[C@H](CC(=O)O)NC(=O)[C@H](CCC(N)=O)NC(=O)[C@H](Cc2cn(C)c3ccccc23)NC1=O` [Compound 54] (Ac-EGSAYCI[Trp(1-Me)]QDWGEHRC[Sar]E-NH2; disulfide 6-16): in data set [1], the half-inhibitory concentration (IC50) was less than 100 nM. In data set [2], the “Solubility, Condition 1 Acetate pH 4” value is “− (denotes lack of solubility at the given condition, as UV absorbance at 340 nm exceeds 0.1 AU and/or it is visibly turbid or contains particles.)”; the “Solubility, Condition 2 Acetate pH 5” value is “− (denotes lack of solubility at the given condition, as UV absorbance at 340 nm exceeds 0.1 AU and/or it is visibly turbid or contains particles.)”; the “Solubility, Condition 3 Phosphate pH 6” value was “+ (denotes solubility at the given condition, as determined by UV absorbance being less than 0.1 AU at 340 nm and the sample being clear when manually inspected.)”; the “Solubility, Condition 4 Phosphate pH 7” value was “+ (denotes solubility at the given condition, as determined by UV absorbance being less than 0.1 AU at 340 nm and the sample being clear when manually inspected.)”. In data set [2], the “Solubility, Condition 5 Phosphate pH 7.5” value is “+ (denotes solubility at the given condition, as determined by UV absorbance being less than 0.1 AU at 340 nm and the sample being clear when manually inspected.)”. This molecule also showed a half-life in data set [3] of 9.71 h. In addition, the “Duration of pharmacological activity (alternative complement pathway activity) in vivo” value (shortened to “Duration of pharmacological activity”) in data set [4] was “relatively short duration of action”.
For the molecule `CC[C@H](C)[C@@H]1NC(=O)[C@@H](NC(=O)[C@H](Cc2ccccc2)NC(C)=O)CSSC[C@@H](C(=O)N[C@H](C(=O)NCC(=O)N[C@@H](C)C(=O)N[C@@H](CCC(=O)O)C(=O)N[C@@H](CO)C(N)=O)[C@@H](C)O)NC(=O)[C@H](CCCNC(=N)N)NC(=O)[C@H](Cc2c[nH]cn2)NC(=O)[C@H](CCC(=O)O)NC(=O)CNC(=O)[C@H](Cc2c[nH]c3ccccc23)NC(=O)[C@H](CC(=O)O)NC(=O)[C@H](CCC(N)=O)NC(=O)[C@H](Cc2cn(C)c3ccccc23)NC1=O` [Compound 61] (Ac-FCI[Trp(1-Me)]QDWGEHRCTGAES-NH2; disulfide 2-12), the IC50 in data set [1] is less than 100 nM. Besides, in data set [2], the “Solubility, Condition 1 Acetate pH 4” value is recorded as “− (denotes lack of solubility at the given condition, as UV absorbance at 340 nm exceeds 0.1 AU and/or it is visibly turbid or contains particles.)”; the “Solubility, Condition 2 Acetate pH 5” value is recorded as “− (denotes lack of solubility at the given condition, as UV absorbance at 340 nm exceeds 0.1 AU and/or it is visibly turbid or contains particles.)”; the “Solubility, Condition 3 Phosphate pH 6” value is “+ (denotes solubility at the given condition, as determined by UV absorbance being less than 0.1 AU at 340 nm and the sample being clear when manually inspected.)”; the “Solubility, Condition 4 Phosphate pH 7” value was “+ (denotes solubility at the given condition, as determined by UV absorbance being less than 0.1 AU at 340 nm and the sample being clear when manually inspected.)”. Moreover, in data set [2], the “Solubility, Condition 5 Phosphate pH 7.5” value was “+ (denotes solubility at the given condition, as determined by UV absorbance being less than 0.1 AU at 340 nm and the sample being clear when manually inspected.)”. In data set [3], this molecule had a half-life of 23.3 h. Moreover, the “Duration of pharmacological activity” value in data set [4] was “relatively short duration of action”.
Consider `CC[C@H](C)[C@H](NC(=O)[C@H](N)Cc1ccc(O)cc1)C(=O)N[C@H]1CSSC[C@@H](C(=O)N(C)[C@H](C(N)=O)[C@@H](C)CC)NC(=O)[C@H](CCCNC(=N)N)NC(=O)[C@H](Cc2c[nH]cn2)NC(=O)[C@H](C)NC(=O)CN(C)C(=O)[C@H](Cc2c[nH]c3ccccc23)NC(=O)[C@H](CC(=O)O)NC(=O)[C@H](CCC(N)=O)NC(=O)[C@H](Cc2cn(C)c3ccccc23)NC(=O)[C@H](C(C)C)NC1=O` [Cp40, H-{d}YIC(1)V[1-Me-Trp]QDW[Sar]AHRC(1)[N-Me-Ile]-NH2, reference compound], for which, in data set [1], the IC50 is less than 100 nM. For the same molecule, in data set [3], the half-life is 31.8 h. Besides, the “Duration of pharmacological activity” value in data set [4] is on record as “relatively short duration of action”.

B1: Compound 1 (peptide)
peptide: Ac-ICIWQDWGAHRCT-NH2
modifications: disulfide 2-12
SMILES: CC[C@H](C)[C@H](NC(C)=O)C(=O)N[C@H]1CSSC[C@@H](C(=O)N[C@H](C(N)=O)[C@@H](C)O)NC(=O)[C@H](CCCNC(=N)N)NC(=O)[C@H](Cc2c[nH]cn2)NC(=O)[C@H](C)NC(=O)CNC(=O)[C@H](Cc2c[nH]c3ccccc23)NC(=O)[C@H](CC(=O)O)NC(=O)[C@H](CCC(N)=O)NC(=O)[C@H](Cc2c[nH]c3ccccc23)NC(=O)[C@H]([C@@H](C)CC)NC1=O
B1: the “IC50[nM], inhibition of hemolysis” value in data set [5] is less than 250 nM. Further, the “CP hemolysis IC50” value in data set [6] turned out to be 150 nM.
